Values joined by “and” are separate entries in the source; they are usually repeats but may differ in a detail not shown here. Identical values can stand only once. Toxic doses and inconclusive results are not listed. How the source made its calls: active means survival T/C of 150% or more; inactive means T/C below 125% in these data.
System: P388 leukemia ip, CD2F1 mice, survival T/C
Experiment: NCI In Vivo Anticancer Drug Screen. Data for tumor model P388 Leukemia (intraperitoneal) in CD2F1 (CDF1) mice
Details: endpoint: median survival time, higher = longer survival
Outline: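 Mice carrying the transplanted tumor received test compound or vehicle. Survival was recorded in each group, and the value is the treated-group measurement divided by that of the vehicle-treated control group.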

[1] = dose: 50.0 mg/kg/injection, schedule: Q01DX009 (ip), vehicle: saline
[2] = dose: 100.0 mg/kg/injection, schedule: Q01DX009 (ip), vehicle: saline
[3] = dose: 200.0 mg/kg/injection, schedule: Q01DX009 (ip), vehicle: saline
[4] = dose: 25.0 mg/kg/injection, schedule: Q01DX001 (ip), vehicle: saline with Tween-80
[5] = dose: 100.0 mg/kg/injection, schedule: Q01DX001 (ip), vehicle: saline with Tween-80
[6] = dose: 200.0 mg/kg/injection, schedule: Q01DX001 (ip), vehicle: saline with Tween-80
[7] = dose: 50.0 mg/kg/injection, schedule: Q01DX009 (ip), vehicle: Klucel (hydroxypropylcellulose) (HPC)
[8] = dose: 50.0 mg/kg/injection, schedule: Q01DX005 (ip), vehicle: saline with Tween-80
[9] = dose: 100.0 mg/kg/injection, schedule: Q01DX005 (ip), vehicle: saline with Tween-80
[10] = dose: 200.0 mg/kg/injection, schedule: Q01DX005 (ip), vehicle: saline with Tween-80
[11] = dose: 100.0 mg/kg/injection, schedule: Q04DX002 (ip), vehicle: saline with Tween-80
[12] = dose: 50.0 mg/kg/injection, schedule: Q01DX009 (ip), vehicle: saline with Tween-80
[13] = dose: 100.0 mg/kg/injection, schedule: Q01DX009 (ip), vehicle: saline with Tween-80
[14] = dose: 200.0 mg/kg/injection, schedule: Q01DX009 (ip), vehicle: saline with Tween-80
[15] = dose: 50.0 mg/kg/injection, schedule: Q01DX005 (ip), vehicle: Klucel (hydroxypropylcellulose) (HPC)
[16] = dose: 100.0 mg/kg/injection, schedule: Q01DX005 (ip), vehicle: Klucel (hydroxypropylcellulose) (HPC)
[17] = dose: 200.0 mg/kg/injection, schedule: Q01DX005 (ip), vehicle: Klucel (hydroxypropylcellulose) (HPC)

Measured: T/C

N#Cc1c(N)sc(=S)c2ccccc12
inactive: [1] 91 % of control | [2] 104 % of control | [3] 95 % of control

CC(C)=CCC(OC(=O)C=C(C)C)c1cc(O)c2c(O)ccc(O)c2c1O.[Mn] (stereo not given)
inactive: [4] 111 % of control | dose: 50.0 mg/kg/injection, schedule: Q01DX001 (ip), vehicle: saline with Tween-80 108 % of control | [5] 111 % of control and 124 % of control | [6] 124 % of control

Cc1ccc(S(=O)(=O)OC2CCCCC2c2ccccc2)cc1 (stereo not given)
inactive: dose: 6.25 mg/kg/injection, schedule: Q01DX001 (ip), vehicle: Klucel (hydroxypropylcellulose) (HPC) 102 % of control | dose: 12.5 mg/kg/injection, schedule: Q01DX001 (ip), vehicle: Klucel (hydroxypropylcellulose) (HPC) 116 % of control and 98 % of control | dose: 25.0 mg/kg/injection, schedule: Q01DX001 (ip), vehicle: Klucel (hydroxypropylcellulose) (HPC) 102 % of control and 90 % of control

NC(=O)c1nc2ccccn2c1[N+](=O)[O-]
inactive: [7] 99 % of control | dose: 100.0 mg/kg/injection, schedule: Q01DX009 (ip), vehicle: Klucel (hydroxypropylcellulose) (HPC) 101 % of control | dose: 200.0 mg/kg/injection, schedule: Q01DX009 (ip), vehicle: Klucel (hydroxypropylcellulose) (HPC) 108 % of control

CCOC(=O)c1cc2nc(C(C)C)n(Cc3ccccc3)c2cc(C(=O)OCC)c1=O
inactive: dose: 60.0 mg/kg/injection, schedule: Q01DX005 (ip), vehicle: saline with Tween-80 103 % of control | dose: 120.0 mg/kg/injection, schedule: Q01DX005 (ip), vehicle: saline with Tween-80 97 % of control | dose: 240.0 mg/kg/injection, schedule: Q01DX005 (ip), vehicle: saline with Tween-80 89 % of control

CCOC(=O)Nc1cc(=O)c([N+](=O)[O-])c(N)[nH]1
inactive: dose: 60.0 mg/kg/injection, schedule: Q01DX005 (ip), vehicle: saline + Tween-80 + alcohol 99 % of control | dose: 120.0 mg/kg/injection, schedule: Q01DX005 (ip), vehicle: saline + Tween-80 + alcohol 101 % of control | dose: 240.0 mg/kg/injection, schedule: Q01DX005 (ip), vehicle: saline + Tween-80 + alcohol 100 % of control

CCN1CCC(C2(C(=O)OC)c3ccccc3-c3ccccc32)C1 (stereo not given)
inactive: dose: 6.25 mg/kg/injection, schedule: Q04DX003 (ip), vehicle: saline 106 % of control | dose: 12.5 mg/kg/injection, schedule: Q04DX003 (ip), vehicle: saline 108 % of control | dose: 25.0 mg/kg/injection, schedule: Q04DX003 (ip), vehicle: saline 103 % of control | dose: 100.0 mg/kg/injection, schedule: Q04DX003 (ip), vehicle: saline 104 % of control

CC(=O)c1ccn[nH]1
inactive: [8] 98 % of control | [9] 99 % of control | [10] 110 % of control

C=CCCC/C=C/CN1CCOCC1
inactive: [1] 103 % of control | [2] 105 % of control

Cc1ccc(S(=O)(=O)NC(=O)NC(=S)c2cccc3ccccc23)cc1
inactive: [5] 101 % of control | [6] 99 % of control | dose: 400.0 mg/kg/injection, schedule: Q01DX001 (ip), vehicle: saline with Tween-80 102 % of control

CN=C(N)N/N=C(\C)c1ccc2c(c1)Cc1cccc(Br)c1-2
inactive: dose: 25.0 mg/kg/injection, schedule: Q04DX002 (ip), vehicle: saline with Tween-80 111 % of control | dose: 50.0 mg/kg/injection, schedule: Q04DX002 (ip), vehicle: saline with Tween-80 109 % of control | [11] 109 % of control

CN(C)S(=O)(=O)Nc1ccccn1
inactive: [12] 106 % of control | [13] 92 % of control | [14] 86 % of control

O=C1C=Cc2ccc(O)cc2C1=O
inactive: dose: 1.25 mg/kg/injection, schedule: Q01DX009 (ip), vehicle: saline 100 % of control | dose: 1.25 mg/kg/injection, schedule: Q04DX003 (ip), vehicle: saline with Tween-80 90 % of control | dose: 2.5 mg/kg/injection, schedule: Q01DX009 (ip), vehicle: saline 110 % of control | dose: 2.5 mg/kg/injection, schedule: Q04DX003 (ip), vehicle: saline with Tween-80 109 % of control | dose: 5.0 mg/kg/injection, schedule: Q04DX003 (ip), vehicle: saline with Tween-80 109 % of control and 95 % of control

COc1cc2cnc(-c3ccccn3)c(O)c2cc1OC
inactive: [1] 100 % of control | [2] 90 % of control | [3] 94 % of control

C=CCS(=O)(=O)O
inactive: [2] 100 % of control | [3] 104 % of control | dose: 400.0 mg/kg/injection, schedule: Q01DX009 (ip), vehicle: saline 100 % of control

Nc1nc(C2CCCC2)cc(=O)[nH]1
inactive: [15] 108 % of control | [16] 105 % of control | [17] 97 % of control

CCN(CC)CC.CCOc1ccc(NC(=O)N=C=[N-])cc1.[CH-]1CCCCC1.[CH-]1CCCCC1.[CH-]1CCCCC1.[Cl-].[Sn+4]
inactive: dose: 6.0 mg/kg/injection, schedule: Q01DX005 (ip), vehicle: Klucel (hydroxypropylcellulose) (HPC) 101 % of control | dose: 12.0 mg/kg/injection, schedule: Q01DX005 (ip), vehicle: Klucel (hydroxypropylcellulose) (HPC) 89 % of control

CCOC(=O)N(CCF)N=O
inactive: dose: 3.12 mg/kg/injection, schedule: Q01DX001 (ip), vehicle: saline with Tween-80 108 % of control and 96 % of control | dose: 6.25 mg/kg/injection, schedule: Q01DX001 (ip), vehicle: saline with Tween-80 108 % of control and 114 % of control | dose: 12.5 mg/kg/injection, schedule: Q01DX001 (ip), vehicle: saline with Tween-80 124 % of control | [4] 117 % of control

CSCCC(NC(=O)C(Cl)Cl)C(=O)O (stereo not given)
inactive: [15] 100 % of control | [16] 96 % of control | [17] 100 % of control

Cc1cccc2c1/C(=C1/c3ccccc3C(=O)c3cccc(C)c31)c1ccccc1C2=O
inactive: dose: 50.0 mg/kg/injection, schedule: Q01DX005 (ip), vehicle: Klucel + Tween-80 87 % of control | dose: 100.0 mg/kg/injection, schedule: Q01DX005 (ip), vehicle: Klucel + Tween-80 90 % of control

O=c1c2ccccc2ccn1O
inactive: [15] 97 % of control | [16] 89 % of control | [17] 89 % of control

CCOc1c(N=Nc2ccccc2OC)c(-c2ccccc2)nn1C(=S)S
inactive: [8] 102 % of control | [9] 101 % of control | [10] 108 % of control

CCCC(O)(CC)/C(C)=N/O (stereo not given)
inactive: [12] 96 % of control | [13] 91 % of control | [14] 91 % of control

N#CCCNc1cc(O)c2c(c1O)C(=O)c1ccccc1C2=O
inactive: dose: 25.0 mg/kg/injection, schedule: Q01DX009 (ip), vehicle: other 88 % of control | dose: 50.0 mg/kg/injection, schedule: Q01DX009 (ip), vehicle: other 100 % of control | dose: 100.0 mg/kg/injection, schedule: Q01DX009 (ip), vehicle: other 95 % of control | dose: 200.0 mg/kg/injection, schedule: Q01DX009 (ip), vehicle: other 90 % of control

COc1ccc(NC(=S)NC(=O)c2ccccc2)cc1OC
inactive: [12] 99 % of control | [13] 100 % of control | [14] 107 % of control

COc1cc(OC(=O)NCCCl)cc(OC)c1OC
inactive: [15] 101 % of control | [16] 108 % of control | [17] 92 % of control

COc1cc2cc[n+](C)c(Cc3ccccc3)c2cc1OC
active: [7] 160 % of control
inactive: dose: 3.12 mg/kg/injection, schedule: Q01DX009 (ip), vehicle: Klucel (hydroxypropylcellulose) (HPC) 111 % of control | dose: 6.25 mg/kg/injection, schedule: Q01DX009 (ip), vehicle: Klucel (hydroxypropylcellulose) (HPC) 111 % of control | dose: 12.5 mg/kg/injection, schedule: Q01DX009 (ip), vehicle: Klucel (hydroxypropylcellulose) (HPC) 114 % of control | dose: 25.0 mg/kg/injection, schedule: Q01DX009 (ip), vehicle: Klucel (hydroxypropylcellulose) (HPC) 121 % of control

c1ccc(-c2cc3ccc4cccnc4c3o2)cc1
inactive: [11] 91 % of control | dose: 200.0 mg/kg/injection, schedule: Q04DX002 (ip), vehicle: saline with Tween-80 87 % of control | dose: 400.0 mg/kg/injection, schedule: Q04DX002 (ip), vehicle: saline with Tween-80 103 % of control

CCOc1ccc2nc(N=NC(C(C)=O)C(C)=O)sc2c1
inactive: [1] 90 % of control | [2] 92 % of control | [3] 92 % of control

Cc1cc(Br)c2ccccc2c1NS(=O)(=O)c1ccccc1
inactive: [13] 100 % of control | [14] 100 % of control | dose: 400.0 mg/kg/injection, schedule: Q01DX009 (ip), vehicle: saline with Tween-80 90 % of control

From PubChem BioAssay AID330 (DTP/NCI, 2004)
